The results in this text go back to US20240269298A1, “PHOSPHONYL DERIVATIVE, AND COMPOSITION AND PHARMACEUTICAL APPLICATION THEREOF” (XIZANG HAISCO PHARMACEUTICAL CO., LTD., priority 2021, published 2024).

Data set [1] has as its system NCI-H1975 (EGFR-L858R-T790M) cells. The data set is described as follows: Inhibitory activity on proliferation of NCI-H1975 (EGFR-L858R-T790M) cells (CTG, 72 h). The format is cell-based. The settings on record: Homo sapiens. Summed up:
(§1)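 IC50 values come from S-shaped dose-survival fits of CTG signal expressed as % of vehicle. Compound exposure lasted 72 h at 37 °C with 0.1% DMSO; seeding was 3000 A431 cells/well in DMEM+10% FBS and 1000 NCI-H1975 cells/well in RPMI1640+10% FBS.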

The subject of data set [2] is NCI-H1975 EGFR-L858R-T790M-C797S cells. The data set is described as follows: Inhibitory activity on proliferation of NCI-H1975 EGFR-L858R-T790M-C797S cells (CellTiter-Glo, 72 h). The data set is classed as cell-based. The conditions noted are these: Homo sapiens. The procedure: NCI-H1975 EGFR-L858R-T790M-C797S cells were cultured in an incubator at 37° C. with 5% CO2, and the culture medium was RPMI1640+10% FBS+100 μg/mL hygromycin. The cells in the logarithmic phase were collected, and the cell suspension was adjusted to an appropriate concentration with a hygromycin-free culture medium, and then plated on a 96-well plate at a density of 1500 cells/well and a volume of 90 μL. 10 μL of the compounds at different concentrations were added, and a vehicle control group (cells plus DMSO) was provided, wherein the concentration of DMSO was 0.1%. The cell culture plate was cultured in an incubator at 37° C. with 5% CO2 for 72 hours. After the incubation was completed, according to operation instructions for a CellTiter-Glo kit (Promega, G7572), 50 μL of CTG solution, which was already pre-melted and equilibrated to room temperature, was added to each well, and the mixtures were uniformly mixed for 2 min using a microplate shaker. The plate was placed at room temperature for 10 min, and then […] signal values were measured using a microplate reader (Envision 2104). […] was processed based on formula (2), and using the GraphPad Prism 5.0 software and nonlinear regression model, S-shaped dose-survival curves were plotted, and IC50 values were calculated. wherein Vsample was the readout of the drug-treated group, and Vvehicle control was the readout of the control group.
Background: In ATP-based viability assays light output follows the ATP content of the culture.

Another data set concerns A431 (EGFR-WT) cells. The data set is described as follows: Inhibitory activity on proliferation of A431 (EGFR-WT) cells (CTG, 72 h). The format is cell-based. The conditions noted are these: Homo sapiens, A-431. Summed up: as §1
The nature of data set [3]: Pharmacokinetic test in mice. The data set is classed as in vivo. The conditions noted are these: male, ICR, mouse, po, administration i.g. (10 mg/kg), plasma. The procedure: Test objective: In this experiment, a single dose of test compounds was administered to ICR mice intravenously and intragastrically, the concentrations of the test compounds in plasma of mice were measured, and the pharmacokinetic characteristics and bioavailability of the test compounds in mice were evaluated.
Experimental animals: male ICR mice, 20-25 g, purchased from BEIJING HFK BIOSCIENCE CO., LTD. with the laboratory animal production license number of SCXK (JING) 2019-0008; or purchased from CHENGDU DDOSSY EXPERIMENTAL ANIMALS CO., LTD. (SCXK (CHUAN) 2020-030); or purchased from HUNAN SJA LABORATORY ANIMAL CO., LTD. (SCXK (XIANG) 2019-0004).
Experimental method: on the day of the experiment, ICR mice were randomly grouped according to their body weights. The mice were fasted with water available for 12 to 14 hours one day before the administration, and were fed 4 hours after the administration.
Sampling: before and after the administration, blood was taken from the orbits of the mice under isoflurane anesthesia, and placed in an EDTAK2 centrifuge tube. Centrifugation was carried out at 5000 rpm at 4° C. for 10 min, and the plasma was collected.
Time points for plasma collection in G1&G2 groups: 0, 5 min, 15 min, 30 min, 1h, 2h, 4h, 6h, 8h, and 24 h; • time points for plasma collection in G3 group: 0, 5 min, 15 min, 30 min, 1 h, 2 h, 4 h, 6h, 8h, and 24 h; • before analysis and detection, all samples were stored at −80° C. The samples were analyzed quantitatively by LC-MS/MS.

Setting [4] is: read-out: IC50 (value in brackets).

Like-named read-outs stand apart in the source and are kept apart here.

Usually IC50 stands for the midpoint of a concentration-inhibition curve. For the compound `COc1cc(N2CCC(N3CCN(CC4CCN(c5ccc6c(c5)C(=O)N(C5CCC(=O)NC5=O)C6=O)C4)CC3)CC2)c(-c2cnn(C)c2)cc1Nc1ncc(Cl)c(Nc2ccc3nccnc3c2P(C)(C)=O)n1` (stereo not shown) [Compound 6, 5-(3-((4-(1-(4-((5-chloro-4-((5-(dimethylphosphoryl)quinoxalin-6-yl)amino)pyrimidin-2-yl)amino)-5-methoxy-2-(1-methyl-1H-pyrazol-4-yl)phenyl)piperidin-4-yl)piperazin-1-yl)methyl)pyrrolidin-1-yl)-2-(2,6-dioxopiperidin-3-yl)isoindoline-1,3-dione], the IC50 was below 100 nM in data set [1] (read-out: IC50 (class symbol)); 15 nM in data set [1] (setting [4]); below 200 nM in data set [2] (read-out: IC50 (class symbol)); 27 nM in data set [2] (read-out: IC50 (value)); at least 10 µM with A431 (EGFR-WT) cells.
For `COc1cc(N2CCC3(CCN(CC4CCN(c5ccc6c(c5)C(=O)N(C5CCC(=O)NC5=O)C6=O)CC4)CC3)CC2)c(-c2cnn(C)c2)cc1Nc1ncc(Cl)c(Nc2ccc3nccnc3c2P(C)(C)=O)n1` (stereo not shown) [Compound 9, 5-(4-((9-(4-((5-chloro-4-((5-(dimethylphosphoryl)quinoxalin-6-yl)amino)pyrimidin-2-yl)amino)-5-methoxy-2-(1-methyl-1H-pyrazol-4-yl)phenyl)-3,9-diazaspiro[5.5]undecan-3-yl)methyl)piperidin-1-yl)-2-(2,6-dioxopiperidin-3-yl)isoindoline-1,3-dione], the 50% inhibitory concentration (IC50) in data set [1] (read-out: IC50 (class symbol)) is below 100 nM; in data set [1] (setting [4]), 14 nM; in data set [2] (read-out: IC50 (class symbol)) it was below 200 nM; in data set [2] (read-out: IC50 (value)) it was 39 nM.
As to `COc1cc(N2CCC(N3CCN(CC4CCN(c5ccc6c(c5)C(=O)N(C5CCC(=O)NC5=O)C6=O)CC4)CC3)CC2)c(-c2cnn(C)c2)cc1Nc1ncc(Br)c(Nc2ccc3nccnc3c2P(C)(C)=O)n1` (stereo not shown) [Compound 18, 5-(4-((4-(1-(4-((5-bromo-4-((5-(dimethylphosphoryl)quinoxalin-6-yl)amino)pyrimidin-2-yl)amino)-5-methoxy-2-(1-methyl-1H-pyrazol-4-yl)phenyl)piperidin-4-yl)piperazin-1-yl)methyl)piperidin-1-yl)-2-(2,6-dioxopiperidin-3-yl)isoindoline-1,3-dione], the IC50 is below 100 nM in data set [1] (read-out: IC50 (class symbol)); 12 nM in data set [1] (setting [4]); below 200 nM in data set [2] (read-out: IC50 (class symbol)); 24 nM in data set [2] (read-out: IC50 (value)); at least 10 µM with A431 (EGFR-WT) cells.
One may read the AUC(0-t) as exposure summed from dosing to a finite time, without extrapolation to infinity. For the compound `COc1cc(N2CCC(CN3CCN(c4ccc5c(c4)C(=O)N(C4CCC(=O)NC4=O)C5=O)CC3)CC2)c(-c2cnn(C)c2)cc1Nc1ncc(Br)c(Nc2ccc(-c3ccccc3)cc2P(C)(C)=O)n1` (stereo not shown) [Compound 45, 5-(4-((1-(4-((5-bromo-4-((3-(dimethylphosphoryl)-[1,1′-biphenyl]-4-yl)amino)pyrimidin-2-yl)amino)-5-methoxy-2-(1-methyl-1H-pyrazol-4-yl)phenyl)piperidin-4-yl)methyl)piperazin-1-yl)-2-(2,6-dioxopiperidin-3-yl)isoindoline-1,3-dione], the IC50 in data set [1] (read-out: IC50 (class symbol)) is 100 to 500 nM; in data set [1] (setting [4]), 105 nM; in data set [2] (read-out: IC50 (class symbol)) it was 200 to 500 nM; in data set [2] (read-out: IC50 (value)) it was 364 nM; in the data set with A431 (EGFR-WT) cells, at least 10 µM. The same compound returned an AUC(0-t) in data set [3] of 59200 ng·h/mL.
With `COc1cc(N2CCC(CN3CCC4(CC3)CCN(c3cc5c(cc3F)C(=O)N(C3CCC(=O)NC3=O)C5=O)CC4)CC2)c(-c2cnn(C)c2)cc1Nc1ncc(Br)c(Nc2ccc(-c3ccccc3)cc2P(C)(C)=O)n1` (stereo not shown) [Compound 47, 5-(9-((1-(4-((5-bromo-4-((3-(dimethylphosphoryl)-[1,1′-biphenyl]-4-yl)amino)pyrimidin-2-yl)amino)-5-methoxy-2-(1-methyl-1H-pyrazol-4-yl)phenyl)piperidin-4-yl)methyl)-3,9-diazaspiro[5.5]undecan-3-yl)-2-(2,6-dioxopiperidin-3-yl)-6-fluoroisoindoline-1,3-dione], the IC50 in data set [1] (read-out: IC50 (class symbol)) was 100 to 500 nM; in data set [1] (setting [4]), 110 nM; in data set [2] (read-out: IC50 (class symbol)), below 200 nM; in data set [2] (read-out: IC50 (value)) it was 72 nM; in the data set with A431 (EGFR-WT) cells, at least 10 µM. In data set [3], this compound came in with an AUC(0-t) of 30600 ng·h/mL.
Consider `COc1cc(N2CCC(CN3CCN(c4ccc5c(c4)C(=O)N(C4CCC(=O)NC4=O)C5=O)CC3)CC2)c(-c2cnn(C)c2)cc1Nc1ncc(Cl)c(Nc2ccc(-c3ccccc3)cc2P(C)(C)=O)n1` (stereo not shown) [Compound 65, 5-(4-((1-(4-((5-chloro-4-((3-(dimethylphosphoryl)-[1,1′-biphenyl]-4-yl)amino)pyrimidin-2-yl)amino)-5-methoxy-2-(1-methyl-1H-pyrazol-4-yl)phenyl)piperidin-4-yl)methyl)piperazin-1-yl)-2-(2,6-dioxopiperidin-3-yl)isoindoline-1,3-dione], for which the IC50 in data set [1] (read-out: IC50 (class symbol)) is 100 to 500 nM; in data set [1] (setting [4]), 129 nM; in data set [2] (read-out: IC50 (class symbol)), below 200 nM; in data set [2] (read-out: IC50 (value)) it was 136 nM; with A431 (EGFR-WT) cells, at least 10 µM. Further, the AUC(0-t) in data set [3] amounted to 62300 ng·h/mL.
Broadly, the AUC is the area under the concentration-time curve, a measure of exposure. Read a low AUC as low exposure. For orientation: half-life means how long it takes for the measured level to halve. Turning to `COc1cc(N2CCC(CN3CCN(c4ccc5c(c4)C(=O)N(C4CCC(=O)NC4=O)C5=O)CC3)CC2)c(-c2cnn(C)c2)cc1Nc1ncc(Br)c(Nc2ccc(-c3ccccc3F)cc2P(C)(C)=O)n1` (stereo not shown) [Compound 101, 5-(4-((1-(4-((5-bromo-4-((3-(dimethylphosphoryl)-2′-fluoro-[1,1′-biphenyl]-4-yl)amino)pyrimidin-2-yl)amino)-5-methoxy-2-(1-methyl-1H-pyrazol-4-yl)phenyl)piperidin-4-yl)methyl)piperazin-1-yl)-2-(2,6-dioxopiperidin-3-yl)isoindoline-1,3-dione], the half-inhibitory concentration (IC50) was 100 to 500 nM in data set [1] (read-out: IC50 (class symbol)); 107 nM in data set [1] (setting [4]); below 200 nM in data set [2] (read-out: IC50 (class symbol)); 152 nM in data set [2] (read-out: IC50 (value)); at least 10 µM in the data set on A431 (EGFR-WT) cells. In data set [3], this compound showed an AUC of 118000 ng·h/mL. In data set [3], this compound showed a half-life of 762 min.
In the case of `COc1cc(N2CCC(N3CCN(CCOCC#Cc4cccc5c4CN(C4CCC(=O)NC4=O)C5=O)CC3)CC2)ccc1Nc1ncc(Cl)c(Nc2ccccc2P(C)(C)=O)n1` (stereo not shown) [Control compound A, reference compound], the IC50 in data set [1] (read-out: IC50 (class symbol)) was 100 to 500 nM; in data set [1] (setting [4]) it was 549 nM; in data set [2] (read-out: IC50 (value)), 1380 nM. In data set [3], this compound yielded an AUC of 563 ng·h/mL. For the same compound, in data set [3], the half-life was 92.4 min.
With `COc1cc(N2CCC(N3CCN(C(=O)CNc4cccc5c4C(=O)N(C4CCC(=O)NC4=O)C5=O)CC3)CC2)ccc1Nc1ncc(Cl)c(Nc2ccccc2P(C)(C)=O)n1` (stereo not shown) [Control compound B, reference compound], the IC50 in data set [1] (read-out: IC50 (class symbol)) is 100 to 500 nM; in data set [1] (setting [4]), 658 nM; in data set [2] (read-out: IC50 (class symbol)), 500 to 1000 nM; in data set [2] (read-out: IC50 (value)), 704 nM. This compound gave an AUC in data set [3] of 2090 ng·h/mL. In data set [3], this compound showed a half-life of 73.8 min.
In the case of `COc1cc(N2CCC(N3CCN(C4CC5(CCN(c6ccc7c(c6)C(=O)N(C6CCC(=O)NC6=O)C7=O)CC5)C4)CC3)CC2)c(-c2cnn(C)c2)cc1Nc1ncc(Cl)c(Nc2ccc3nccnc3c2P(C)(C)=O)n1` (stereo not shown) [Trifluoroacetate of compound 7, 5-(2-(4-(1-(4-((5-chloro-4-((5-(dimethylphosphoryl)quinoxalin-6-yl)amino)pyrimidin-2-yl)amino)-5-methoxy-2-(1-methyl-1H-pyrazol-4-yl)phenyl)piperidin-4-yl)piperazin-1-yl)-7-azaspiro[3.5]nonan-7-yl)-2-(2,6-dioxopiperidin-3-yl)isoindoline-1,3-dione], the IC50 is below 100 nM in data set [1] (read-out: IC50 (class symbol)); 20 nM in data set [1] (setting [4]); below 200 nM in data set [2] (read-out: IC50 (class symbol)); 30 nM in data set [2] (read-out: IC50 (value)); at least 10 µM in the data set with A431 (EGFR-WT) cells.
